Assays:
[1] = target: T1, NEK11 (Homo sapiens, UniProt Q8NG66); assay: KINOMEscan; format: binding; settings: read-out: Percent Control
T1 construct: purchased Eurofins DiscoverX KINOMEscan (scanMAX 468)

[2] = target: T2, JNK1 (Homo sapiens, UniProt P45983); assay: KINOMEscan; format: binding; settings: read-out: Percent Control
T2 construct: purchased Eurofins DiscoverX KINOMEscan (scanMAX 468)

[3] = target: T3, ERK8 (Homo sapiens, UniProt Q8TD08); assay: KINOMEscan; format: binding; settings: read-out: Percent Control
T3 construct: purchased Eurofins DiscoverX KINOMEscan (scanMAX 468)

[4] = target: T4, PIP5K2C (Homo sapiens, UniProt Q8TBX8); assay: KINOMEscan; format: binding; settings: read-out: Percent Control
T4 construct: purchased Eurofins DiscoverX KINOMEscan (scanMAX 468)

[5] = target: T5, FRK (Homo sapiens, UniProt P42685); assay: KINOMEscan; format: binding; settings: read-out: Percent Control
T5 construct: purchased Eurofins DiscoverX KINOMEscan (scanMAX 468)

[6] = target: T6, RET (Homo sapiens, UniProt P07949); assay: KINOMEscan; format: binding; settings: read-out: Percent Control
T6 construct: purchased Eurofins DiscoverX KINOMEscan (scanMAX 468)

[7] = target: T7, LTK (Homo sapiens, UniProt P29376); assay: KINOMEscan; format: binding; settings: read-out: Percent Control
T7 construct: purchased Eurofins DiscoverX KINOMEscan (scanMAX 468)

[8] = target: T8, BRSK1 (Homo sapiens, UniProt Q8TDC3); assay: KINOMEscan; format: binding; settings: read-out: Percent Control
T8 construct: purchased Eurofins DiscoverX KINOMEscan (scanMAX 468)

[9] = target: T9, SRC (Homo sapiens, UniProt P12931); assay: KINOMEscan; format: binding; settings: read-out: Percent Control
T9 construct: purchased Eurofins DiscoverX KINOMEscan (scanMAX 468)

[10] = target: T10, PFPK5(P.falciparum) (Plasmodium falciparum, UniProt P61075); assay: KINOMEscan; format: binding; settings: read-out: Percent Control
T10 construct: purchased Eurofins DiscoverX KINOMEscan (scanMAX 468)

[11] = target: T11, PDPK1 (Homo sapiens, UniProt O15530); assay: KINOMEscan; format: binding; settings: read-out: Percent Control
T11 construct: purchased Eurofins DiscoverX KINOMEscan (scanMAX 468)

[12] = target: T12, S6K1 (Homo sapiens, UniProt P23443); assay: KINOMEscan; format: binding; settings: read-out: Percent Control
T12 construct: purchased Eurofins DiscoverX KINOMEscan (scanMAX 468)

[13] = target: T13, RPS6KA5(Kin.Dom.2-C-terminal) (Homo sapiens, UniProt O75582); assay: KINOMEscan; format: binding; settings: read-out: Percent Control
T13 construct: RPS6KA5(Kin.Dom.2-C-terminal); purchased Eurofins DiscoverX KINOMEscan (scanMAX 468)

[14] = target: T14, DCAMKL1 (Homo sapiens, UniProt O15075); assay: KINOMEscan; format: binding; settings: read-out: Percent Control
T14 construct: purchased Eurofins DiscoverX KINOMEscan (scanMAX 468)

[15] = target: T15, HCK (Homo sapiens, UniProt P08631); assay: KINOMEscan; format: binding; settings: read-out: Percent Control
T15 construct: purchased Eurofins DiscoverX KINOMEscan (scanMAX 468)

[16] = target: T16, PIK3CA (Homo sapiens, UniProt P42336); assay: KINOMEscan; format: binding; settings: read-out: Percent Control
T16 construct: purchased Eurofins DiscoverX KINOMEscan (scanMAX 468)

[17] = target: T17, EPHB6 (Homo sapiens, UniProt O15197); assay: KINOMEscan; format: binding; settings: read-out: Percent Control
T17 construct: purchased Eurofins DiscoverX KINOMEscan (scanMAX 468)
T17 sequence (O15197 32-1021): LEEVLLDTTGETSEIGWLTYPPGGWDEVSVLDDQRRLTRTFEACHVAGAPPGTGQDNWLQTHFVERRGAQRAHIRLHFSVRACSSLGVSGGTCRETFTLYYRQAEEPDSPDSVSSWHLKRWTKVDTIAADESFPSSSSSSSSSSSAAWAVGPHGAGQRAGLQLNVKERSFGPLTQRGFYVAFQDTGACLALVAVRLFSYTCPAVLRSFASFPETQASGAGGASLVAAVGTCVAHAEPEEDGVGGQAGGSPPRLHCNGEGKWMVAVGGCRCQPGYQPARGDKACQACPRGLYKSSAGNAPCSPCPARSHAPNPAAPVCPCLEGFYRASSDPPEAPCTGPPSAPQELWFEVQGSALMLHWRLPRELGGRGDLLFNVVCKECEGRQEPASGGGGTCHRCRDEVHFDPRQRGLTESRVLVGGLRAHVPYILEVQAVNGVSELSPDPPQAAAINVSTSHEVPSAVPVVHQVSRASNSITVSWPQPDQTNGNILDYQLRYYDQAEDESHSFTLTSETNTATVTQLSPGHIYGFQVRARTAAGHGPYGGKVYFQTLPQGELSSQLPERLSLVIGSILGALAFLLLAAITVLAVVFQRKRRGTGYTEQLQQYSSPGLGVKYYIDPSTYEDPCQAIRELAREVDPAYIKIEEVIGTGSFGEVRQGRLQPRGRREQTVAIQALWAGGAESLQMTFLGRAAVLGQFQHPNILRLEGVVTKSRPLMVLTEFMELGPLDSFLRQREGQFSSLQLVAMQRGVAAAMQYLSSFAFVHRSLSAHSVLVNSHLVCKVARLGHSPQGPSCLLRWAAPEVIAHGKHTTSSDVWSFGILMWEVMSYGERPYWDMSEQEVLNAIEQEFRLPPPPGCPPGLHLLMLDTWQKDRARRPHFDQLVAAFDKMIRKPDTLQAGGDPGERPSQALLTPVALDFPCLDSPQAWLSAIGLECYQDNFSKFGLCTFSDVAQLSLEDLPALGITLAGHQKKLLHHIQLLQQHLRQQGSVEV

[18] = target: T18, LCK (Homo sapiens, UniProt P06239); assay: KINOMEscan; format: binding; settings: read-out: Percent Control
T18 construct: purchased Eurofins DiscoverX KINOMEscan (scanMAX 468)

[19] = target: T19, TRKC (Homo sapiens, UniProt Q16288); assay: KINOMEscan; format: binding; settings: read-out: Percent Control
T19 construct: purchased Eurofins DiscoverX KINOMEscan (scanMAX 468)
T19 sequence (Q16288 32-839): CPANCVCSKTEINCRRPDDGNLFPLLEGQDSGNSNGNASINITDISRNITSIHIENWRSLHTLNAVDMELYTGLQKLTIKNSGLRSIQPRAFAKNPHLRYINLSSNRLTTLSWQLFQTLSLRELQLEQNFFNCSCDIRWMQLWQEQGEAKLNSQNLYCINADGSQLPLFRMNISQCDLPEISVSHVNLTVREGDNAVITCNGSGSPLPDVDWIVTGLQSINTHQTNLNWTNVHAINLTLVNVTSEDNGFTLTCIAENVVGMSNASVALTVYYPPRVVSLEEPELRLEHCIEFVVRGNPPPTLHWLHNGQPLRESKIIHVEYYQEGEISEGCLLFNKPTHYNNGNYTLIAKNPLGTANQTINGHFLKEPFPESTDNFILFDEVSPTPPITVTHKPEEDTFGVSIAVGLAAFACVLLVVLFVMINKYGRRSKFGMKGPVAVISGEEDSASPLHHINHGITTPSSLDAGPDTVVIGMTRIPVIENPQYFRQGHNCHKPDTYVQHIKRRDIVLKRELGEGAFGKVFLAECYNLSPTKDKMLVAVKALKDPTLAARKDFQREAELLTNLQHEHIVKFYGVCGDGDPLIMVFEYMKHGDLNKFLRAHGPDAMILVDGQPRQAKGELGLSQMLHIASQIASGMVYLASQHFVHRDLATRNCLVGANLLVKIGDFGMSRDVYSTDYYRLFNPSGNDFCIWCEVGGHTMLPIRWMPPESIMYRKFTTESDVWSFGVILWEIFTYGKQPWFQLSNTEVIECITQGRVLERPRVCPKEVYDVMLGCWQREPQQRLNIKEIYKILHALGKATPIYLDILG

[20] = target: T20, ABL1(F317I)-phosphorylated (Homo sapiens, UniProt P00519, F317I); assay: KINOMEscan; format: binding; settings: read-out: Percent Control
T20 construct: purchased Eurofins DiscoverX KINOMEscan (scanMAX 468)

[21] = target: T21, RSK4(Kin.Dom.1-N-terminal) (Homo sapiens, UniProt Q9UK32); assay: KINOMEscan; format: binding; settings: read-out: Percent Control
T21 construct: RSK4(Kin.Dom.1-N-terminal); purchased Eurofins DiscoverX KINOMEscan (scanMAX 468)

[22] = target: T22, CSNK1D (Homo sapiens, UniProt P48730); assay: KINOMEscan; format: binding; settings: read-out: Percent Control
T22 construct: purchased Eurofins DiscoverX KINOMEscan (scanMAX 468)

[23] = target: T23, CSNK1A1 (Homo sapiens, UniProt P48729); assay: KINOMEscan; format: binding; settings: read-out: Percent Control
T23 construct: purchased Eurofins DiscoverX KINOMEscan (scanMAX 468)

[24] = target: T24, PAK7 (Homo sapiens, UniProt Q9P286); assay: KINOMEscan; format: binding; settings: read-out: Percent Control
T24 construct: purchased Eurofins DiscoverX KINOMEscan (scanMAX 468)

[25] = target: T25, ACVR2A (Homo sapiens, UniProt P27037); assay: KINOMEscan; format: binding; settings: read-out: Percent Control
T25 construct: purchased Eurofins DiscoverX KINOMEscan (scanMAX 468)

[26] = target: T26, AURKC (Homo sapiens, UniProt Q9UQB9); assay: KINOMEscan; format: binding; settings: read-out: Percent Control
T26 construct: purchased Eurofins DiscoverX KINOMEscan (scanMAX 468)

[27] = target: T27, EGFR(L858R) (Homo sapiens, UniProt P00533, L858R); assay: KINOMEscan; format: binding; settings: read-out: Percent Control
T27 construct: purchased Eurofins DiscoverX KINOMEscan (scanMAX 468)
T27 sequence (P00533 25-1210 L858R): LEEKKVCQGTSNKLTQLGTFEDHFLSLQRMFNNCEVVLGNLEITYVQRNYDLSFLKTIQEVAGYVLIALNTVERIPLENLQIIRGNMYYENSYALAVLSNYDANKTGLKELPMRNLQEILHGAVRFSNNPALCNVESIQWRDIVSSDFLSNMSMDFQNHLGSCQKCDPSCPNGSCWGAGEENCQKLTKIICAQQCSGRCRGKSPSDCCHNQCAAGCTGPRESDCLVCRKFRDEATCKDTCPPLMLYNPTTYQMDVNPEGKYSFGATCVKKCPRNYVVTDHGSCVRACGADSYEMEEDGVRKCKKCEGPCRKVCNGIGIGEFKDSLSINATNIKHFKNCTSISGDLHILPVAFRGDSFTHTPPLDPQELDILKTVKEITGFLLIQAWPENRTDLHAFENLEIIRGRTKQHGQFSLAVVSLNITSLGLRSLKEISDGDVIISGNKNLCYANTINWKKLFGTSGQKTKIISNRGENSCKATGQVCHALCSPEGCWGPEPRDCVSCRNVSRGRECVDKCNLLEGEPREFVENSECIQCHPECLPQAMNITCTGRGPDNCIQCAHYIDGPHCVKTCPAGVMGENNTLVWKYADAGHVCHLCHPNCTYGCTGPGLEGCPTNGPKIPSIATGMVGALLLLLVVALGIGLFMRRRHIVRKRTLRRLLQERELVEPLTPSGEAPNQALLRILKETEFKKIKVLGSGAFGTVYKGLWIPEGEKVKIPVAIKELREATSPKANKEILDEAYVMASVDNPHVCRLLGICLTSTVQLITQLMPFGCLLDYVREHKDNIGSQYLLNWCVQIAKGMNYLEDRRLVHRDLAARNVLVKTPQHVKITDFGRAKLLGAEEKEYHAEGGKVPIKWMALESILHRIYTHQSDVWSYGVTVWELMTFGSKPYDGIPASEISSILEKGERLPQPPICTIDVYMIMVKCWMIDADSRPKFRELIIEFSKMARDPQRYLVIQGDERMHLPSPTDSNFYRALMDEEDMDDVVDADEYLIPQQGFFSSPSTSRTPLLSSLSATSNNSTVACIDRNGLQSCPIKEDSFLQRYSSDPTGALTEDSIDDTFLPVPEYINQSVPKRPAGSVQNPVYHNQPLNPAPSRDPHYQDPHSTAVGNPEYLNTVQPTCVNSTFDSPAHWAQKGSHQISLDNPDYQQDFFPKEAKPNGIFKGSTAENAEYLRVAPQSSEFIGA

[28] = target: T28, ASK1 (Homo sapiens, UniProt Q99683); assay: KINOMEscan; format: binding; settings: read-out: Percent Control
T28 construct: purchased Eurofins DiscoverX KINOMEscan (scanMAX 468)

[29] = target: T29, BUB1 (Homo sapiens, UniProt O43683); assay: KINOMEscan; format: binding; settings: read-out: Percent Control
T29 construct: purchased Eurofins DiscoverX KINOMEscan (scanMAX 468)
T29 sequence (O43683 whole entry): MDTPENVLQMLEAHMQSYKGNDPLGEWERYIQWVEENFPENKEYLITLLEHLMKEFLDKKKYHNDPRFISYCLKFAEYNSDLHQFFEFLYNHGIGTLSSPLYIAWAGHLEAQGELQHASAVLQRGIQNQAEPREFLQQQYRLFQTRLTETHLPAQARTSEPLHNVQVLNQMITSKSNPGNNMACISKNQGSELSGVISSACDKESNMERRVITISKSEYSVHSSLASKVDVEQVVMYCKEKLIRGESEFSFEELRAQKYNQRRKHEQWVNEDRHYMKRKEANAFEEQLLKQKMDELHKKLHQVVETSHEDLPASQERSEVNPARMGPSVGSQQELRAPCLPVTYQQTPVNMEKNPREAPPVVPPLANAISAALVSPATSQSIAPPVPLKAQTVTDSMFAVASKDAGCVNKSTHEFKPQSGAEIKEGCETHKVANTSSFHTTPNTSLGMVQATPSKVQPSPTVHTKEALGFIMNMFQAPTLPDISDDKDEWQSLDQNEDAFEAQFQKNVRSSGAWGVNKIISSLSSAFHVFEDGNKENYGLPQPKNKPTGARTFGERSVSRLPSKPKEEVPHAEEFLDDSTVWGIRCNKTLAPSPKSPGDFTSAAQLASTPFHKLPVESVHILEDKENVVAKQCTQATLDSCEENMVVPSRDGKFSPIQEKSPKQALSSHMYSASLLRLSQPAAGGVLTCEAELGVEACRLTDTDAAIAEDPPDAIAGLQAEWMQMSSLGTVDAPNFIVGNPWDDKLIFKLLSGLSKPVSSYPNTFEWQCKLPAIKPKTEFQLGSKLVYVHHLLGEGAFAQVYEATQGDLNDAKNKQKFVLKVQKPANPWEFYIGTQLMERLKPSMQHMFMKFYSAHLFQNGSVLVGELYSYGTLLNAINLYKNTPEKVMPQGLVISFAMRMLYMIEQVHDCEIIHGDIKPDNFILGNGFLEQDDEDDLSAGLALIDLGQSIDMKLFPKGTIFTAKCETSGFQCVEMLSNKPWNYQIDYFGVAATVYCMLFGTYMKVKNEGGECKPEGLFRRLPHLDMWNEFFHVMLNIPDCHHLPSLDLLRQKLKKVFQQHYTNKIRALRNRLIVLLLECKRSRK

[30] = target: T30, JAK3(JH1domain-catalytic) (Homo sapiens, UniProt P52333); assay: KINOMEscan; format: binding; settings: read-out: Percent Control
T30 construct: JAK3(JH1domain-catalytic); purchased Eurofins DiscoverX KINOMEscan (scanMAX 468)

[31] = tested on: panel of 468 kinases; assay: KINOMEscan, whole panel selectivity score; format: binding, human; settings: 1 µM; non-mutant kinases with %Ctrl < 25 / 403 non-mutant kinases tested
[32] = target: T31, NLK (Homo sapiens, UniProt Q9UBE8); assay: KINOMEscan; format: binding; settings: read-out: Percent Control
T31 construct: purchased Eurofins DiscoverX KINOMEscan (scanMAX 468)
T31 sequence (Q9UBE8 whole entry): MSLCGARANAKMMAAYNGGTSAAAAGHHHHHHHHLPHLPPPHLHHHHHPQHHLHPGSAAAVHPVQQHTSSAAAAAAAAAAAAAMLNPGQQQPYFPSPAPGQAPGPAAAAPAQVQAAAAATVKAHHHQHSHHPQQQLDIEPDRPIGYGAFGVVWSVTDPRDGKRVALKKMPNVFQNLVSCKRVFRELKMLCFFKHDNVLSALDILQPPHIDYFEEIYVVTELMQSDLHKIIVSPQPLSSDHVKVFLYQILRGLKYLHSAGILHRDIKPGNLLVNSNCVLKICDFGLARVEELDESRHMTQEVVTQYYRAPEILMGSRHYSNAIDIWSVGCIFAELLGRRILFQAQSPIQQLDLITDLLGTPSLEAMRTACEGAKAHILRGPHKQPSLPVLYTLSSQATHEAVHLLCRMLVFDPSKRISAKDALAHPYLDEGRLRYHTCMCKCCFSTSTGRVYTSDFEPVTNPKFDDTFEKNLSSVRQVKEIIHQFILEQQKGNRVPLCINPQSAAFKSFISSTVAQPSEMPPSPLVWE

[33] = target: T32, EPHA1 (Homo sapiens, UniProt P21709); assay: KINOMEscan; format: binding; settings: read-out: Percent Control
T32 construct: purchased Eurofins DiscoverX KINOMEscan (scanMAX 468)

[34] = target: T33, FLT3(D835V) (Homo sapiens, UniProt P36888, D835V); assay: KINOMEscan; format: binding; settings: read-out: Percent Control
T33 construct: purchased Eurofins DiscoverX KINOMEscan (scanMAX 468)

[35] = target: T34, BRSK2 (Homo sapiens, UniProt Q8IWQ3); assay: KINOMEscan; format: binding; settings: read-out: Percent Control
T34 construct: purchased Eurofins DiscoverX KINOMEscan (scanMAX 468)

[36] = target: T35, PKAC-alpha (Homo sapiens, UniProt P17612); assay: KINOMEscan; format: binding; settings: read-out: Percent Control
T35 construct: purchased Eurofins DiscoverX KINOMEscan (scanMAX 468)

[37] = target: T36, TGFBR1 (Homo sapiens, UniProt P36897); assay: KINOMEscan; format: binding; settings: read-out: Percent Control
T36 construct: purchased Eurofins DiscoverX KINOMEscan (scanMAX 468)
T36 sequence (P36897 34-503): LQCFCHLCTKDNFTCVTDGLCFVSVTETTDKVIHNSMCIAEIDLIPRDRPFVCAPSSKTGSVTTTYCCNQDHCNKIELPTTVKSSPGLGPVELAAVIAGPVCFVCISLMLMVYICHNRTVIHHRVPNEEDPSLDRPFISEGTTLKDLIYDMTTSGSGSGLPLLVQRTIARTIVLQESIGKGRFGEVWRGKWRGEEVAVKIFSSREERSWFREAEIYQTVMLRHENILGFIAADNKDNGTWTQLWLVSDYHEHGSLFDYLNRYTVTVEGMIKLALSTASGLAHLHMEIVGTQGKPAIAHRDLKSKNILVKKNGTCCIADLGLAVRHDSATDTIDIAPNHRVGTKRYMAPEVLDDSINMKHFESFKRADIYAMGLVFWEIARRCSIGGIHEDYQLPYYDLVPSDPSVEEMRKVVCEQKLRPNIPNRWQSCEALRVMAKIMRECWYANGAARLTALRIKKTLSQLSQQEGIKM

[38] = target: T37, ULK1 (Homo sapiens, UniProt O75385); assay: KINOMEscan; format: binding; settings: read-out: Percent Control
T37 construct: purchased Eurofins DiscoverX KINOMEscan (scanMAX 468)

[39] = target: T38, KIT(V559D,T670I) (Homo sapiens, UniProt P10721, T670I/V559D); assay: KINOMEscan; format: binding; settings: read-out: Percent Control
T38 construct: purchased Eurofins DiscoverX KINOMEscan (scanMAX 468)

[40] = target: T39, LRRK2 (Homo sapiens, UniProt Q5S007); assay: KINOMEscan; format: binding; settings: read-out: Percent Control
T39 construct: purchased Eurofins DiscoverX KINOMEscan (scanMAX 468)

[41] = target: T40, KIT(A829P) (Homo sapiens, UniProt P10721, A829P); assay: KINOMEscan; format: binding; settings: read-out: Percent Control
T40 construct: purchased Eurofins DiscoverX KINOMEscan (scanMAX 468)

`Cc1ccc(-n2cc(COc3cccc4cnc(Nc5cccc(Cl)c5)nc34)nn2)c([N+](=O)[O-])c1` [DB18] was tested, and the remaining binding at 1 µM [1] was 100%, the remaining binding at 1 µM [2] was 93% and the remaining binding at 1 µM [3] was 95%. It also gave a remaining binding at 1 µM [4] of 28%, a remaining binding at 1 µM [5] of 83% and a remaining binding at 1 µM [6] of 92%. For the same molecule, the remaining binding at 1 µM [7] was 80%, the remaining binding at 1 µM [8] was 100% and the remaining binding at 1 µM [9] was 100%. For the same molecule, the remaining binding at 1 µM [10] was 100%, the remaining binding at 1 µM [11] was 92% and the remaining binding at 1 µM [12] was 94%. For the same molecule, the remaining binding at 1 µM [13] was 100%, the remaining binding at 1 µM [14] was 88% and the remaining binding at 1 µM [15] was 100%. It also gave a remaining binding at 1 µM [16] of 95%, a remaining binding at 1 µM [17] of 95% and a remaining binding at 1 µM [18] of 100%. For the same molecule, the remaining binding at 1 µM [19] was 59%, the remaining binding at 1 µM [20] was 100% and the remaining binding at 1 µM [21] was 96%. The remaining binding at 1 µM [22] was 100%, the remaining binding at 1 µM [23] was 94% and the remaining binding at 1 µM [24] was 92%. It also gave a remaining binding at 1 µM [25] of 100%, a remaining binding at 1 µM [26] of 100% and a remaining binding at 1 µM [27] of 94%. It also gave a remaining binding at 1 µM [28] of 100%, a remaining binding at 1 µM [29] of 97% and a remaining binding at 1 µM [30] of 93%. For the same molecule, the “S-Score(25)” value [31] was 0.015, the remaining binding at 1 µM [32] was 87% and the remaining binding at 1 µM [33] was 95%. The remaining binding at 1 µM [34] was 67%, the remaining binding at 1 µM [35] was 97% and the remaining binding at 1 µM [36] was 100%. For the same molecule, the remaining binding at 1 µM [37] was 100%, the remaining binding at 1 µM [38] was 100% and the remaining binding at 1 µM [39] was 96%. For the same molecule, the remaining binding at 1 µM [40] was 100% and the remaining binding at 1 µM [41] was 100%.
